Data on 14 compounds can be found in patent publication US7351700B2, “Aminomethylpyrimidines as allosteric enhancers of the GABAB receptors” (Hoffmann-La Roche Inc., priority 2004, dated 2008).

The conditions of data set [1]: PO, cited from earlier work.
For data set [2] the following is noted: rats; cited from earlier work.
Data set [3] addresses T1, human GABABR1aR2a (Homo sapiens, UniProt O75899+Q9UBS5).
T1 construct: expressed in transfected cells
In words: Intracellular Ca2+ mobilization assay (FLIPR) in CHO-GABABR1aR2a-Gα16 cell. Type of data set: cell-based. Particulars: for GABA shift Log [EC50(GABA + 10 μM cp)/EC50(GABA alone)]: 10 μM enhancer applied 15 min before GABA (0.0003-30 μM); for Emax: enhancer 0.001-30 μM in presence of 10 nM GABA (EC10), normalized to 10 μM GABA = 100%, 10 nM GABA = 0%, read-out: Emax (%) at 10 nM GABA alone = 0% 10 μM GABA alone = 100%; for EC50: enhancer concentration-response in presence of 10 nM GABA. Here is the method: Intracellular Ca^2+ Mobilization Assay
The Chinese Hamster Ovary (CHO) cells stably expressing human GABABR1aR^2a and Gα16 were seeded at 5×10^4 cells/well in the poly-D-lysine treated, 96-well, black/clear-bottomed plates (BD Biosciences, Palo Alto, Calif.). 24 h later, the cells were loaded for 90 min at 37° C. with 4 μM Flou-4 acetoxymethyl ester (Catalog No. F-14202, Molecular Probes, Eugene, Oreg.) in loading buffer (1×HBSS, 20 mM HEPES, 2.5 mM Probenecid). Hanks' Balanced Salt Solution (HBSS) (10×) (catalog No. 14065-049) and HEPES (1M) (catalog No. 15630-056) were purchased from Invitrogen, Carlsbad, Calif. Probenecid (250 mM) (catalog No. P8761) was from Sigma, Buchs, Switzerland. The cells were washed five times with loading buffer to remove excess dye and intracellular calcium mobilization, [Ca^2+ ]i were measured using a Fluorometric Imaging Plate Reader (FLIPR, Molecular Devices, Menlo Park, Calif.) as described previously (Porter et al., Br. J. Pharmacol., 128, 13-20, 1999). The enhancers were applied 15 min before the application of the GABA. For GABA shift assay, concentration-response curves of GABA (0.0003-30 μM) were determined in the absence and presence of 10 μM enhancer. The GABA-shift is defined as Log [EC50 (GABA+10 μM enhancer)/EC50 (GABA alone)]. The % maximum enhancing effect (% Emax) potency (EC50 value) of each enhancer was determined from concentration-response curve of the enhancer (0.001-30 μM) in the presence of 10 nM (GABA) (EC10). Responses were measured as peak increase in fluorescence minus basal, normalized to the maximal stimulatory effect induced by 10 μM GABA alone (considered 100%) and 10 nM GABA alone (considered 0%). The data were fitted with the equation Y=100+(Max −100)/(1+(EC50/[drug])^n) where Max is the maximum effect, EC50 the concentration eliciting a half-maximum effect and n the Hill slope.

For data set [4] the following is noted: passive avoidance behavioral test in mice and rats; cited from earlier work.
The conditions of data set [5]: elevated plus maze (rat), elevated zero maze (mice and rats), stress-induced hyperthermia (mice); cited from earlier work.

Structures are written as SMILES.

T1 sequence (Q9UBS5 15-961 limits assumed): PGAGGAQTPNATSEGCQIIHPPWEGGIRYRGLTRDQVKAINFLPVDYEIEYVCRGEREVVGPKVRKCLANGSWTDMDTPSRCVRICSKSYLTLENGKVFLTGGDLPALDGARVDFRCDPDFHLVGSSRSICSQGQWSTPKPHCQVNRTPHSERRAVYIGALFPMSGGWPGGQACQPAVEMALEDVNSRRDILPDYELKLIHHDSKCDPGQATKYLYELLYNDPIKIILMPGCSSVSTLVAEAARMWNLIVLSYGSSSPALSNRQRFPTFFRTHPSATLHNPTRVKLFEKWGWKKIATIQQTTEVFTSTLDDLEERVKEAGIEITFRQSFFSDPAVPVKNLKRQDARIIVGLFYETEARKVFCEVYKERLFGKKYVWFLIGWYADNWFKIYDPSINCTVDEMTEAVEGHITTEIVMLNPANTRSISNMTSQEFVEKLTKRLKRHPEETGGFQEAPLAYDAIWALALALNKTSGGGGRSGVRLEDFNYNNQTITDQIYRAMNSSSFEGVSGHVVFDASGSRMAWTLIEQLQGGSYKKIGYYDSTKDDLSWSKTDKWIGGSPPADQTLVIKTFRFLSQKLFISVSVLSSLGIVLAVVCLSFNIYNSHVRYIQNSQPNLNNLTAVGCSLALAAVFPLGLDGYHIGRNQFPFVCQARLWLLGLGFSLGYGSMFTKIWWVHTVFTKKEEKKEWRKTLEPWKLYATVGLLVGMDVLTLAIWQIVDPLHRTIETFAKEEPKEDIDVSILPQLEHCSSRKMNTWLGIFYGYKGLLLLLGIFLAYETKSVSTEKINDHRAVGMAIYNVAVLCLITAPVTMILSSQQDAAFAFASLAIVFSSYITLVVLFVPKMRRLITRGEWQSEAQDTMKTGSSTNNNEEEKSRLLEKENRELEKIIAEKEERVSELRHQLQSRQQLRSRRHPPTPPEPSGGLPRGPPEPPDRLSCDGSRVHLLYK
T1 sequence (O75899 42-941): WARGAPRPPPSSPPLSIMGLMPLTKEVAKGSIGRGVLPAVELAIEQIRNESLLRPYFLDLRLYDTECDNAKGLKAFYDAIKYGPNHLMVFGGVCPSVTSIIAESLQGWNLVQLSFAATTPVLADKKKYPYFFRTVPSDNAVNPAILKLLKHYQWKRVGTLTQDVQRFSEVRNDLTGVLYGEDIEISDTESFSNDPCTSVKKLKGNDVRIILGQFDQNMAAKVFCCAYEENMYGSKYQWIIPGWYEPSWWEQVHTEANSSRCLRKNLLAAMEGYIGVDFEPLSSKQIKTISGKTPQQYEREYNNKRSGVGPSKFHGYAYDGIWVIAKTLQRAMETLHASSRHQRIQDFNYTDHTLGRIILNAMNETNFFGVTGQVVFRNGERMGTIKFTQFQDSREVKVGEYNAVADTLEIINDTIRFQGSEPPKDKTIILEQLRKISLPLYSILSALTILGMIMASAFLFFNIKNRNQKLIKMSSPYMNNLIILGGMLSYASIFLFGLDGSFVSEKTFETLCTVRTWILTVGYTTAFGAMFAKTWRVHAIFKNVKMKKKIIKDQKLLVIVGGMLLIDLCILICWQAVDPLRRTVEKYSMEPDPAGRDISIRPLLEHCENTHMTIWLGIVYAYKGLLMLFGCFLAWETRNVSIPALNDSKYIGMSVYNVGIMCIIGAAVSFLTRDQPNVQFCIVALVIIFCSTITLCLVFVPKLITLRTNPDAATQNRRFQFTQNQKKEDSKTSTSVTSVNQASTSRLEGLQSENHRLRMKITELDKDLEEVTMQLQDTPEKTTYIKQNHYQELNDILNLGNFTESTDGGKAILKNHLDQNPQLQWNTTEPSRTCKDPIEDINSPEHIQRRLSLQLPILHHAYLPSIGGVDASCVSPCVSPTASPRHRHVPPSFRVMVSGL

For `NCC(CC(=O)O)c1ccc(Cl)cc1` (stereo not drawn) [Baclofen, β-chlorophenyl GABA], the “side effects (spontaneous locomotor activity, rotarod, body temperature, traction test)” value in data set [1] (2.5-15 mg/kg) is given as “showed these side effects”.
`CC(C)(CO)Cc1cc(C(C)(C)C)c(O)c(C(C)(C)C)c1` [CGP7930, 2,6-di-tert-butyl-4-(3-hydroxy-2,2-dimethyl-propyl)-phenol]: in data set [2], the decreasing cocaine self-administration entry is on record as “effective”.
For the compound `CCCCCCSc1nc(C)cc(CN2CCOCC2)n1` [Example 1, 4-(2-Hexylsulfanyl-6-methyl-pyrimidin-4-ylmethyl)-morpholine], in data set [3], the “GABA shift Log [EC50(GABA + 10 μM cp)/EC50(GABA alone)]” value (shortened to “GABA shift Log”) is recorded as −0.75, the Emax was found to be 46% and the EC50 turned out to be 2.2 µM.
For `CCCCCSc1nc(C)cc(CN2CCOCC2)n1` [Example 2, 4-(6-Methyl-2-pentylsulfanyl-pyrimidin-4-ylmethyl)-morpholine], in data set [3], the “GABA shift Log” value is listed as −0.55, the Emax came to 52% and the EC50 was 1.7 µM.
The matching figures for `Cc1cc(CN2CCOCC2)nc(SCc2ccc(C(C)(C)C)cc2)n1` [Example 11, 4-[2-(4-tert-Butyl-benzylsulfanyl)-6-methyl-pyrimidin-4-ylmethyl]-morpholine]: −0.60, 41% and 4.2 µM.
The matching figures for `CCCCCCSc1nc(C)cc(CN2CCCC2)n1` [Example 16, 2-Hexylsulfanyl-4-methyl-6-pyrrolidin-1-ylmethyl-pyrimidine]: −0.50, 48% and 8.5 µM.
`CCCCCCSc1nc(C)cc(CN2CCCCC2C)n1` (stereo not drawn) [Example 31, 2-Hexylsulfanyl-4-methyl-6-(2-methyl-piperidin-1-ylmethyl)-pyrimidine]: in data set [3], the “GABA shift Log” value is −0.69, the Emax came to 60% and the EC50 amounted to 9.6 µM.
The matching figures for `CCCCCCSc1nc(C)cc(CN2C[C@@H]3C[C@@H](C2)c2cccc(=O)n2C3)n1` [Example 35, (1S,5S)-3-(2-Hexylsulfanyl-6-methyl-pyrimidin-4-ylmethyl)-1,2,3,4,5,6-hexahydro-1,5-methano-pyrido [1,2-a][1,5]diazocin-8-one]: −0.92, 62% and 1.8 µM.
In the case of `CCCCCCSc1nc(C)cc(CN2C(C)CCCC2C)n1` (stereo not drawn) [Example 37, 4-(2,6-Dimethyl-piperidin-1-ylmethyl)-2-hexylsulfanyl-6-methyl-pyrimidine], in data set [3], the “GABA shift Log” value is −0.76, the Emax was 74.2% and the EC50 amounted to 8.2 µM.
The matching figures for `CCCCCCSc1nc(C)cc(CN2[C@H](C)CCC[C@@H]2C)n1` [Example 38, 4-(cis-2,6-Dimethyl-piperidin-1-ylmethyl)-2-hexylsulfanyl-6-methyl-pyrimidine]: −0.71, 61% and 6.3 µM.
Turning to `CCCCCCSc1nc(CN2CCOCC2)cc(C(F)(F)F)n1` [Example 39, 4-(2-Hexylsulfanyl-6-trifluoromethyl-pyrimidin-4-ylmethyl)-morpholine], in data set [3], the “GABA shift Log” value was −0.48, the Emax came to 62% and the EC50 stood at 6.4 µM.
The matching figures for `CCCCCCSc1nc(CC)cc(CN2CCOCC2)n1` [Example 41, 4-(2-Hexylsulfanyl-6-ethyl-pyrimidin-4-ylmethyl)-morpholine]: −0.86, 60% and 4.1 µM.
For `CCCCCCSc1nc(C)cc(C(C)N2CCOCC2)n1` (stereo not drawn) [Example 43, 4-[1-(2-Hexylsulfanyl-6-methyl-pyrimidin-4-yl)-ethyl]-morpholine], in data set [3], the “GABA shift Log” value is listed as −0.70, the Emax amounted to 49% and the EC50 is 4.4 µM.
`CSc1nc(NC2CCCC2)c([N+](=O)[O-])c(NC2CCCC2)n1` [GS39783, N,N_-dicyclopentyl-2-methylsulfanyl-5-nitro-pyrimidine-4,6-diamine]: the “effect on spontaneous locomotor activity, rotarod, body temperature and traction test” value in data set [1] (0.1-200 mg/kg) is on record as “no effect”. In addition, the “effect on cognition performance” value in data set [4] was “did not have any effect”. The anxiolytic-like effects entry in data set [5] is listed as “exhibited anxiolytic-like effects”. In addition, in data set [2], the decreasing cocaine self-administration entry was “effective”.
